# According to ChEMBL document CHEMBL1122675, “Topical carbonic anhydrase inhibitors” (J Med Chem, 1984):
# How the values were obtained:
# [1] = Acid dissociation constant was determined.; type: ADME
# [2] = Compound was tested for Octanol / pH 7.2 phosphate buffer distribution coefficient (N=2-3); type: physicochemical
# [3] = Solubility at a pH 7.2 phosphate buffer, 37 degrees celsius (N=6); type: physicochemical
# [4] = target: Carbonic anhydrase (Homo sapiens) (UniProt P00918+P43166+P00915+P07451+P23280+O43570+Q9ULX7+Q16790+P22748+Q8N1Q1+Q9Y2D0+P35218)
# Description: Compound was tested for relative in vitro carbonic anhydrase activity from human red blood cell.
# [5] = Corneal permeability coefficient was determined; type: ADME
# [6] = phosphate buffer, read-out: Solubility
SMILES,pKa ([1]; read-out: pKa),logD [2],"solubility [3, 6] [µg/mL]",CAI activity [4],pKa [1],solubility ([3]; buffer) [µg/mL],Permeability coefficient [5] [cm/s]
CCOc1ccc2nc(S(=O)(=O)NC(C)=O)sc2c1,2.95,-1.02,11500,0.0041,–,–,–
NS(=O)(=O)c1nc2ccc(O)cc2s1,7.81,1.12,–,–,9.26,1560,–
CCOc1ccc2nc(S(=O)(=O)NC)sc2c1,9.1,2.59,64,0.0064,–,–,–
NS(=O)(=O)c1nc2ccc(Cl)cc2s1,7.72,2.1,607,1.23,–,–,–
CCOc1ccc2nc(S(N)(=O)=O)sc2c1 [ETHOXZOLAMIDE],–,2.06,60,–,–,–,0.0000439
NS(=O)(=O)c1nc2ccccc2s1,7.9,1.33,–,–,–,1021,0.0000362
